From ChEMBL document CHEMBL1147640, “Antitumor agents. Part 232: Synthesis of cyclosulfite podophyllotoxin analogues as novel prototype antitumor agents” (2004) come the findings set out here.

What all share (conditions): Homo sapiens, read-out: ED50 (the source's name)
For one experiment, the system named is 1A9. Kind of experiment: Effective dose of compound against replication of 1A9 cell line was evaluated. The experiment is classed as functional.
The next experiment concerns A549. The experiment can be described thus: Effective dose of compound against replication of A549 cell line was evaluated. It is filed as functional.
Another experiment deals with HCT-8. Kind of experiment: Effective dose of compound against replication of HCT-8 cell line was evaluated. The experiment is classed as functional.
A further experiment concerns HOS. Kind of experiment: Effective dose of compound against replication of HOS cell line was evaluated. The experiment is classed as functional.
The test system of experiment [1] is KB. The experiment can be described thus: Effective dose of compound against replication of KB cell line was evaluated. The experiment is classed as functional.
Experiment [2] concerns KB. The experiment can be described thus: Effective dose of compound against replication of KB-Vin cell line was evaluated. The experiment is classed as functional.
Experiment [3] relates to KB. The experiment can be described thus: Effective dose of compound against replication of KB/7d cell line was evaluated. The experiment is classed as functional.
The subject of the next experiment is MCF7. Kind of experiment: Effective dose of compound against replication of MCF-7 cell line was evaluated. The experiment is classed as functional.
A further experiment concerns PC-3. Kind of experiment: Effective dose of compound against replication of PC-3 cell line was evaluated. It is filed as functional.
In a further experiment the test system is SK-MEL-2. The experiment can be described thus: Effective dose of compound against replication of SK-MEL-2 cell line was evaluated. The experiment is classed as functional.
For the next experiment, the system named is U-87 MG. Kind of experiment: Effective dose of compound against replication of U87MG cell line was evaluated. It is filed as functional, U-87MG ATCC.

Regarding `COc1cc([C@@H]2c3cc4c(cc3[C@@H](Nc3ccc([N+](=O)[O-])cc3)[C@H]3COC(=O)[C@H]23)OCO4)cc(OC)c1O`, the EC50 is below 1.6 µM in the experiment on 1A9; below 0.1 µM with A549; 1.6 µM in the experiment with HCT-8; below 1.6 µM with HOS; 3.5 µM in the experiment on KB [1]; 4.1 µM with KB [2]. Besides, the EC50 with KB [3] amounted to 1500 nM; in the experiment on MCF7 it was 24.5 µM; in the experiment with PC-3, 8.9 µM; with SK-MEL-2, 3 µM; in the experiment on U-87 MG it was 5.5 µM.
For the compound `COc1cc([C@@H]2c3cc4c(cc3[C@@H](Nc3ccc([N+](=O)[O-])cc3)[C@H]3COS(=O)OC[C@H]23)OCO4)cc(OC)c1O` (some centres not stated), the EC50 in the experiment on 1A9 was 4.2 µM; in the experiment on A549, 8 µM; in the experiment with HCT-8, 10 µM; in the experiment on HOS, 6 µM; in the experiment on KB [1], 5.1 µM; with KB [2], 7.1 µM. For the same compound, the EC50 in the experiment on KB [3] was 2900 nM; in the experiment with MCF7, 2.5 µM; in the experiment with PC-3, above 20 µM; with SK-MEL-2 it was 7.9 µM; in the experiment on U-87 MG, 8 µM.
